Key:
corn = assay: Test B pre/postemergence corn; assay type: in vivo, Zea mays
Summary of the method: (§1)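 Test chemicals in a non-phytotoxic solvent mixture with surfactant were sprayed preemergence onto planted seeds and postemergence onto plants 2 to 18 cm tall (1- to 4-leaf stage). After twelve to sixteen days in a greenhouse, injury was visually rated against untreated controls from 0 (no effect) to 10 (complete control).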

rape = assay: Test B pre/postemergence rape; assay type: in vivo, Brassica napus
Summary of the method: as §1

sugar beet = assay: Test B pre/postemergence sugar beet; assay type: in vivo, Beta vulgaris
Summary of the method: as §1

duck salad = assay: Test B flood test duck salad; assay type: in vivo, Heteranthera limosa
Summary of the method: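 Read-out is a visual response score from 0 (no effect) to 10 (complete control), assigned by comparison with untreated controls. Treatment was applied at the 2-leaf stage, and plants stayed in the greenhouse for twelve to sixteen days before scoring.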

[1] = Postemergence, Rate 250 g/ha, scale 0 to 10, 0 is no effect, 10 is complete control
[2] = Postemergence, Rate 500 g/ha, scale of 0 to 10 where 0 is no effect and 10 is complete control
[3] = Preemergence, Rate 62 g/ha, scale 0 to 10 (0 no effect, 10 complete control)
[4] = Preemergence, Rate 125 g/ha, scale of 0 to 10 where 0 is no effect and 10 is complete control
[5] = Preemergence, Rate 250 g/ha, scale 0 to 10, 0 is no effect, 10 is complete control
[6] = Preemergence, Rate 500 g/ha, scale 0 to 10, 0 is no effect, 10 is complete control
[7] = Rate 62 g/ha, Postemergence, scale of 0 to 10 where 0 is no effect and 10 is complete control
[8] = Rate 250 g/ha, Pre-emergence, flood-test species, scale 0 to 10, 0 is no effect, 10 is complete control
[9] = Postemergence, Rate 62 g/ha, scale 0 to 10, 0 is no effect, 10 is complete control
[10] = Postemergence, Rate 250 g/ha, scale 0 to 10, 0 no effect, 10 complete control
[11] = Preemergence, Rate 125 g/ha, scale 0 to 10 (0 no effect, 10 complete control)
[12] = Preemergence, Rate 250 g/ha, scale of 0 to 10 where 0 is no effect and 10 is complete control
[13] = Preemergence, Rate 500 g/ha, scale 0 (no effect) to 10 (complete control)
[14] = Rate 125 g/ha, Postemergence, scale 0 to 10, 0 no effect, 10 complete control
[15] = Rate 500 g/ha, Postemergence, scale 0 to 10, 0 no effect, 10 complete control
[16] = Rate 62 g/ha, headed Pre-emergence (flood test species), scale 0 to 10 (0 no effect, 10 complete control)
[17] = Rate 125 g/ha, Pre-emergence, flood test species, scale 0 to 10 where 0 is no effect and 10 is complete control
[18] = Rate 500 g/ha, headed Pre-emergence (flood test species), scale 0 to 10 (0 no effect, 10 complete control)
[19] = Preemergence, Rate 62 g/ha, scale of 0 to 10 where 0 is no effect and 10 is complete control
[20] = Preemergence, Rate 125 g/ha, 0 is no effect, 10 is complete control
[21] = Preemergence, Rate 500 g/ha, scale 0 to 10 (0 no effect, 10 complete control)
[22] = Rate 125 g/ha, Postemergence, scale 0 to 10
[23] = Rate 500 g/ha, Postemergence, scale 0 to 10
[24] = Postemergence, Rate 125 g/ha, scale of 0 to 10 where 0 is no effect and 10 is complete control
[25] = Rate 62 g/ha, Preemergence, scale 0 to 10
[26] = Rate 250 g/ha, Postemergence, scale 0 to 10, 0 is no effect, 10 is complete control
[27] = Rate 500 g/ha, Postemergence, scale 0 to 10, 0 is no effect, 10 is complete control
[28] = Rate 500 g/ha, Preemergence, scale 0 to 10 (0 no effect, 10 complete control)
[29] = Preemergence, Rate 250 g/ha, scale 0 (no effect) to 10 (complete control)

## Cc1nc(Cl)sc1C(C)n1c(=O)on(C(=O)N(c2ccc(F)cc2)C(C)C)c1=O (centres unmarked) [Compound 401]
corn; Postemergence, Rate 125 g/ha, scale 0 to 10, 0 is no effect, 10 is complete control
  Plant response rating, Corn: 0
corn; [1]
  Plant response rating, Corn: 0
corn; [2]
  Corn plant response rating: 0
corn; [3]
  Plant response rating, Corn: 0
corn; [4]
  Plant response rating, Corn: 0
corn; [5]
  Corn plant response rating: 0
corn; [6]
  Corn plant response rating: 0
corn; [7]
  Corn plant response rating: 0
rape; [2]
  Rape plant response rating: 7
rape; [3]
  Plant response rating, Rape: 0
rape; [4]
  Plant response rating, Rape: 0
rape; [5]
  Rape plant response rating: 0
rape; [6]
  Rape plant response rating: 0
rape; [7]
  Rape plant response rating: 0
Sugar beet; [1]
  Plant response rating, Sugarbeets: 0
Sugar beet; [2]
  Sugarbeets plant response rating: 0
Sugar beet; [3]
  Plant response rating, Sugarbeets: 0
Sugar beet; [4]
  Plant response rating, Sugarbeets: 0
Sugar beet; [5]
  Sugarbeets plant response rating: 0
Sugar beet; [6]
  Sugarbeets plant response rating: 0
Sugar beet; [7]
  Sugarbeets plant response rating: 0
Duck salad; Rate 62 g/ha, flood test species, Pre-emergence, visual evaluation after twelve to sixteen days
  Plant response rating, Ducksalad (0 to 10 scale, 0 is no effect, 10 is complete control): 0
Duck salad; Rate 125 g/ha, under heading Pre-emergence, flood test species, visual evaluation after twelve to sixteen days
  Ducksalad plant response rating (0 to 10 scale, 0 is no effect, 10 is complete control): 0
Duck salad; [8]
  Ducksalad plant response rating: 0
Duck salad; Rate 500 g/ha, Pre-emergence, flood test species, scale 0 to 10 (0 no effect, 10 complete control)
  Ducksalad plant response rating: 0

## Cc1ccccc1-n1c(=O)on(C(=O)N(Cc2ccccc2)C(C)C)c1=O [Compound 72]
corn; [9]
  Corn plant response rating: 0
corn; [10]
  Corn plant response rating: 0
corn; [3]
  Corn plant response rating: 0
corn; [11]
  Plant response rating, Corn: 0
corn; [12]
  Plant response rating, Corn: 0
corn; [13]
  Corn plant response rating: 0
corn; [14]
  Corn plant response rating: 0
corn; [15]
  Corn plant response rating: 0
rape; [9]
  Rape plant response rating: 0
rape; [10]
  Rape plant response rating: 0
rape; [3]
  Rape plant response rating: 0
rape; [11]
  Plant response rating, Rape: 0
rape; [12]
  Plant response rating, Rape: 0
rape; [13]
  Rape plant response rating: 0
rape; [14]
  Rape plant response rating: 0
rape; [15]
  Rape plant response rating: 0
Sugar beet; [9]
  Sugarbeets plant response rating: 0
Sugar beet; [10]
  Sugarbeets plant response rating: 0
Sugar beet; [3]
  Sugarbeets plant response rating: 0
Sugar beet; [11]
  Plant response rating, Sugarbeets: 0
Sugar beet; [12]
  Plant response rating, Sugarbeets: 0
Sugar beet; [13]
  Sugarbeets plant response rating: 0
Sugar beet; [14]
  Sugarbeets plant response rating: 0
Sugar beet; [15]
  Sugarbeets plant response rating: 0
Duck salad; [16]
  Ducksalad plant response rating: 0
Duck salad; [17]
  Ducksalad plant response rating: 0
Duck salad; Rate 250 g/ha, headed Pre-emergence (flood test species), scale 0 to 10 (0 no effect, 10 complete control)
  Ducksalad plant response rating: 0
Duck salad; [18]
  Plant response rating, Ducksalad: 0

## CCN(Cc1ccncc1)C(=O)n1oc(=O)n(C(C)C)c1=O [Compound 189]
corn; [19]
  Corn plant response rating: 0
corn; [20]
  Corn plant response rating (0 to 10 scale): 0
corn; [5]
  Corn plant response rating: 0
corn; [21]
  Corn plant response rating: 0
corn; [7]
  Corn plant response rating: 0
corn; [22]
  Corn plant response rating: 0
corn; Rate 250 g/ha, Postemergence
  Plant response rating (0 to 10; 0 is no effect, 10 is complete control), Corn: 0
corn; [23]
  Corn plant response rating: 0
rape; [19]
  Rape plant response rating: 0
rape; [20]
  Rape plant response rating (0 to 10 scale): 0
rape; [5]
  Rape plant response rating: 0
rape; [21]
  Rape plant response rating: 0
rape; [7]
  Rape plant response rating: 0
rape; [22]
  Rape plant response rating: 0
rape; Rate 250 g/ha, Postemergence
  Plant response rating (0 to 10; 0 is no effect, 10 is complete control), Rape: 0
rape; [23]
  Rape plant response rating: 0
Sugar beet; [19]
  Sugarbeets plant response rating: 0
Sugar beet; [20]
  Sugarbeets plant response rating (0 to 10 scale): 0
Sugar beet; [5]
  Sugarbeets plant response rating: 0
Sugar beet; [21]
  Sugarbeets plant response rating: 0
Sugar beet; [7]
  Sugarbeets plant response rating: 0
Sugar beet; [22]
  Sugarbeets plant response rating: 0
Sugar beet; Rate 250 g/ha, Postemergence
  Plant response rating (0 to 10; 0 is no effect, 10 is complete control), Sugarbeets: 0
Sugar beet; [23]
  Sugarbeets plant response rating: 0
Duck salad; [16]
  Ducksalad plant response rating: 0
Duck salad; [17]
  Ducksalad plant response rating: 0
Duck salad; [8]
  Ducksalad plant response rating: 0
Duck salad; [18]
  Plant response rating, Ducksalad: 0

## CC(C)N(C(=O)n1oc(=O)n(CC2=NOCCO2)c1=O)c1ccc(F)cc1F [Compound 758]
corn; [9]
  Plant response rating, Corn: 0
corn; [24]
  Corn plant response rating: 0
corn; [4]
  Plant response rating, Corn: 0
corn; [25]
  Corn plant response rating: 0
corn; [26]
  Corn plant response rating: 0
corn; [27]
  Corn plant response rating: 3
corn; [28]
  Corn plant response rating: 3
rape; [9]
  Plant response rating, Rape: 0
rape; [24]
  Rape plant response rating: 0
rape; [4]
  Plant response rating, Rape: 4
rape; [29]
  Rape plant response rating: 4
rape; [25]
  Rape plant response rating: 0
rape; [26]
  Rape plant response rating: 0
rape; [27]
  Rape plant response rating: 2
rape; [28]
  Rape plant response rating: 8
Sugar beet; [9]
  Plant response rating, Sugarbeets: 0
Sugar beet; [4]
  Plant response rating, Sugarbeets: 7
Sugar beet; [29]
  Sugarbeets plant response rating: 7
Sugar beet; [25]
  Sugarbeets plant response rating: 5
Sugar beet; [26]
  Sugarbeets plant response rating: 3
Sugar beet; [27]
  Sugarbeets plant response rating: 8
Sugar beet; [28]
  Sugarbeets plant response rating: 8
Duck salad; Pre-emergence, Rate 62 g/ha, scale 0 to 10, 0 is no effect, 10 is complete control
  Ducksalad plant response rating: 0
Duck salad; Rate 125 g/ha, Pre-emergence section (flood test species), scale 0 to 10, 0 no effect, 10 complete control
  Ducksalad plant response rating: 0
Duck salad; Rate 250 g/ha, Pre-emergence (flood test species), scale 0 to 10, 0 is no effect, 10 is complete control
  Ducksalad plant response rating: 0
Duck salad; Rate 500 g/ha, Pre-emergence section of Table B, 0 to 10 scale (0 no effect, 10 complete control)
  Ducksalad plant response rating: 0
